Assays:
[1] = target: LMP7 (purified human immuno proteasome) (Homo sapiens, UniProt P20618+P28062); test: Determination of LMP7 activity (fluorescence intensity assay, Suc-LLVY-AMC); type: biochemical; details: for Selectivity LMP7 vs Beta5: LMP7 versus Beta5, incubation for 20 minutes; for IC50: purified human immuno proteasome 0.25 nM, incubation for 20 minutes at 25° C., Suc-LLVY-AMC 40 μM
Method: Determination of LMP7 Activity:
Measurement of LMP7 inhibition is performed in 384 well format based on fluorescence intensity assay.
(§1) Purified human immuno proteasome (0.25 nM) and serial diluted compounds in DMSO (range of concentrations from 30 μM to […]) or controls are incubated for 20 minutes or 120 minutes (long incubation) at 25° C. in assay buffer containing 50 mM Tris pH 7.4, 0.03% SDS, 1 mM EDTA and 1% DMSO. The reaction is initiated by the addition of the fluorogenic peptide substrate, Suc-LLVY-AMC (Bachem 1-1395), at a concentration of 40 μM. After 60 minutes of incubation at 37° C., fluorescence intensity is measured at λex=350 nm and λem=450 nm with a fluorescence reader (Perkin Elmer Envision reader or equivalent).
(§2) Unless indicated otherwise the results are obtained after incubation for 20 minutes.

[2] = target: Beta5 (purified human constitutive proteasome) (Homo sapiens, UniProt P20618+P28074); test: Determination of Beta5 activity (fluorescence intensity assay, Suc-LLVY-AMC); type: biochemical; details: purified human constitutive proteasome 1.25 nM, incubation for 20 minutes at 25° C., Suc-LLVY-AMC 40 μM
Method: Determination of Beta5 Activity:
Measurement of Beta5 inhibition is performed in 384 well format based on fluorescence intensity assay.
as §1, with “constitutive” for “immuno”, “(1.25” for “(0.25”
as §2

SMILES	Selectivity LMP7 vs Beta5 [1]	IC50 [1] [nM]	IC50 [2] [nM]
CC(C)(O)CC(=O)N[C@@H](Cc1coc2ccccc12)B(O)O [Compound 25, [(1R)-2-(benzofuran-3-yl)-1-[(3-hydroxy-3-methylbutanoyl)amino]-ethyl]boronic acid]	++ (100 ≤ Selectivity < 300)	≤ 50	5000 to 30000
O=C(N[C@@H](Cc1coc2ccccc12)B(O)O)[C@@H]1CCCO1 [Compound 26, [(1R)-2-(benzofuran-3-yl)-1-[[(2S)-tetrahydro-furan-2-carbonyl]amino]-ethyl]boronic acid]	++ (100 ≤ Selectivity < 300)	50 to 500	5000 to 30000
O=C(N[C@@H](Cc1coc2ccccc12)B(O)O)[C@H]1CCCO1 [Compound 27, [(1R)-2-(benzofuran-3-yl)-1-[[(2R)-tetrahydro-furan-2-carbonyl]amino]-ethyl]boronic acid]	++ (100 ≤ Selectivity < 300)	≤ 50	500 to 5000
COCC(=O)N[C@@H](Cc1coc2ccccc12)B(O)O [Compound 28, [(1R)-2-(benzofuran-3-yl)-1-[(2-methoxy-acetyl)amino]ethyl]-boronic acid]	+ (Selectivity <100)	≤ 50	500 to 5000
Cc1cccc2c(C[C@H](NC(=O)[C@H]3CCCO3)B(O)O)coc12 [Compound 29, [(1R)-2-(7-methylbenzo-furan-3-yl)-1-[[(2R)-tetrahydrofuran-2-carbonyl]amino]ethyl]-boronic acid]	++ (100 ≤ Selectivity < 300)	≤ 50	500 to 5000
Cc1cccc2c(C[C@@H](NC(=O)[C@H]3CCCO3)B(O)O)coc12 [Compound 30]	++ (100 ≤ Selectivity < 300)	50 to 500	5000 to 30000
COCCC(=O)N[C@@H](Cc1coc2ccccc12)B(O)O [Compound 31, [(1R)-2-(benzofuran-3-yl)-1-(3-methoxy-propanoylamino)ethyl]-boronic acid]	++ (100 ≤ Selectivity < 300)	≤ 50	50 to 500
O=C(N[C@@H](Cc1coc2ccccc12)B(O)O)[C@H]1CCOC1 [Compound 32, [(1R)-2-(benzofuran-3-yl)-1-[[(3S)-tetrahydro-furan-3-carbonyl]-amino]ethyl]boronic acid]	++ (100 ≤ Selectivity < 300)	≤ 50	5000 to 30000
O=C(N[C@@H](Cc1coc2ccccc12)B(O)O)[C@@H]1CCOC1 [Compound 33, [(1R)-2-(benzofuran-3-yl)-1-[[(3R)-tetrahydro-furan-3-carbonyl]-amino]ethyl]boronic acid]	++++ (Selectivity ≥ 500)	≤ 50	500 to 5000
O=C(N[C@@H](Cc1coc2ccccc12)B(O)O)C1COc2ccccc21 (stereo partly drawn) [Compound 35, [(1R)-2-(benzofuran-3-yl)-1-(2,3-dihydrobenzo-furan-3-carbonylamino)-ethyl]boronic acid]	++++ (Selectivity ≥ 500)	≤ 50	500 to 5000
O=C(N[C@@H](Cc1coc2ccccc12)B(O)O)C1OCCc2ccccc21 (stereo partly drawn) [Compound 38, [(1R)-2-(benzofuran-3-yl)-1-(isochromane-1-carbonylamino)ethyl]-boronic acid]	+++ (300 ≤ Selectivity < 500)	≤ 50	500 to 5000
O=C(N[C@@H](Cc1coc2ccccc12)B(O)O)[C@@H]1COCCO1 [Compound 39, [(1R)-2-(benzofuran-3-yl)-1-[[(2S)-1,4-dioxane-2-carbonyl]-amino]ethyl]boronic acid]	++ (100 ≤ Selectivity < 300)	≤ 50	500 to 5000
O=C(N[C@@H](Cc1coc2ccccc12)B(O)O)[C@H]1COCCO1 [Compound 40, [(1R)-2-(benzofuran-3-yl)-1-[[(2R)-1,4-dioxane-2-carbonyl]-amino]ethyl]boronic acid]	+ (Selectivity <100)	≤ 50	500 to 5000
